The test deals with T1, ctEzh2 (ctPRC2) (Thermochaetoides thermophila, UniProt G0SDW4).
T1 construct: gene EZH2; Fusion of Ezh2 (residues 191–950) and the VEFS domain of Suz12 (residues 530–691), and full length Eed (residues 1–565); with Eed, Suz12(VEFS)
T1 sequence (G0SDW4 191-950): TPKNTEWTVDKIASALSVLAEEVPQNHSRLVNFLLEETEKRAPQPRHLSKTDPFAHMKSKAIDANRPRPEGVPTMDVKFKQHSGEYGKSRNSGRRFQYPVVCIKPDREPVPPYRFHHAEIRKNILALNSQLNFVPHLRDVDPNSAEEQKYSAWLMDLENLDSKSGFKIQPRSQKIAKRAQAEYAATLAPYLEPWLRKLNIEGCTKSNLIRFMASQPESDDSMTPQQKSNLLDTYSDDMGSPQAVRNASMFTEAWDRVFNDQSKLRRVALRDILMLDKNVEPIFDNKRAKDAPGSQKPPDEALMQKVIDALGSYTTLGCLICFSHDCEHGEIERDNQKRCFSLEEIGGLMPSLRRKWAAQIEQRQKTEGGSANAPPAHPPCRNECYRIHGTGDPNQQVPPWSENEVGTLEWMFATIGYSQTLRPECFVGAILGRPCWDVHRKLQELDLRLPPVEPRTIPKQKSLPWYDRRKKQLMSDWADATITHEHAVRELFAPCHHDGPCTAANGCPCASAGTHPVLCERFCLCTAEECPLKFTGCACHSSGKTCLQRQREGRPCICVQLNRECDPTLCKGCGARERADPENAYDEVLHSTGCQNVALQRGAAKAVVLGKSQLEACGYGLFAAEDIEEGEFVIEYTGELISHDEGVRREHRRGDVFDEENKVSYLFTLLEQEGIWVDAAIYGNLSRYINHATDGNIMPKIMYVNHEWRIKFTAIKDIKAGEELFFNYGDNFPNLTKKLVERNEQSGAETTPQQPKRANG
T1 sequence (G0S8H7 1-565 partner): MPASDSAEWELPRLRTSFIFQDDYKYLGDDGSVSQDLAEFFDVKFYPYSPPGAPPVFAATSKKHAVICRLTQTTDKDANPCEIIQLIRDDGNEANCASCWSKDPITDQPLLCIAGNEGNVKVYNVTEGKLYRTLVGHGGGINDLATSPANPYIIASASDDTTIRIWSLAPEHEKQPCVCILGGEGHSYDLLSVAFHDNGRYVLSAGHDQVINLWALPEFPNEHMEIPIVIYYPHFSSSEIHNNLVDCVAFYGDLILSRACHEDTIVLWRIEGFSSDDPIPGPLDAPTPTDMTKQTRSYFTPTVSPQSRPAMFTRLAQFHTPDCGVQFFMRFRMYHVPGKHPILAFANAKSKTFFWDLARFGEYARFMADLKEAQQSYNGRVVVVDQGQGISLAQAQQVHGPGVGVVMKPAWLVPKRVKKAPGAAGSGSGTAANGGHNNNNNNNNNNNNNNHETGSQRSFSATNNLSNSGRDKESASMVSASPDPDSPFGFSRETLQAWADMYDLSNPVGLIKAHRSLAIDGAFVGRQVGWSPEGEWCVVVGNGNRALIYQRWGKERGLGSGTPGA
T1 sequence (G0RYC6 530-691 partner): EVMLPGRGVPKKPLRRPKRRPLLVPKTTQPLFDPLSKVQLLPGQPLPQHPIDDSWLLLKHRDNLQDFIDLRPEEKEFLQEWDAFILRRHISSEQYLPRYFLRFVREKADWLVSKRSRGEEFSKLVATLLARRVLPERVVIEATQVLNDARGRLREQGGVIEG
The test can be described thus: co-crystal structure ([…] Å, soaked); radiometric methyltransferase IC50. In kind it is biochemical.

pIC50: −log10 of the molar value.

Compound `CC[C@H](C)n1cc(C)c2c(C(=O)NCc3c(C)cc(C)[nH]c3=O)cc(-c3ccc(N4CCNCC4)nc3)cc21` [GSK126] had a negative logarithm of the IC50 (pIC50) of about 4.00.
